“Also recorded” adds a separate entry of the source.
Experiments:
[1] = system: pancreatic islet cells of type-2 diabetic mice; experiment: Immunohistochemical (anti-insulin antibody) and hematoxylin-eosin staining of pancreatic islets; type: in vivo; details: 1 mg/kg/day for 3 weeks, FIG. 4
Procedure: After 120 minutes, the mice were sacrificed by cervical dislocation, and then immediately the peritoneum was incised. Then, the intestinal and pancreatic tissues were collected and fixed in 4% paraformaldehyde solution (solvent-phosphate buffer; pH 7.4; Sigma, USA) for 12 hours or more. Then, the pancreatic tissue was separated from the intestinal or adipose tissue, and the separated tissue was washed three times or more with a fresh fixture and then processed into paraffin-embedded tissue according to a conventional method.
Tissue sections were cut from the paraffin-embedded tissue at 5-μm intervals using a microtome (Shandon, Germany) and applied to slides coated with poly-L-lysine (Sigma, USA) before use in immunohistochemical staining. In order to remove paraffin from the pancreatic tissue-coated slides, sections were deparaffinized with xylene (Junsei, Japan) for 5 minutes to remove paraffin. Then, the sections were hydrated in 100-70% alcohol series and allowed to stand in phosphate buffer (pH 7.4) for 5 minutes. Then, the sections were treated with 3% hydrogen peroxide to remove intrinsic peroxidase, and then allowed to react with anti-insulin antibody (Dako, USA) at 4° C. for 12 hours. Then, the section samples were subjected to immunohistochemical staining with anti-insulin antibody using an immunohistochemical staining kit (A.B.I., Jeonju-si, Korea). […]

[2] = system: type-2 diabetic mice (C57BL/KsJ-db/db Jcl); experiment: Glucose tolerance test (blood glucose after glucose load) in type-2 diabetic mice given NAADP by osmotic mini-pump; type: in vivo
From the text: Seven-week-old type-2 diabetic mice were divided into a control group (five animals) and test groups and tested using an osmotic mini-pump in the following manner. […] Then, the NAADP solution was infused into the abdominal cavity of the mice according to the method described in the supplier's manual.

[3] = system: type-2 diabetic mice (C57BL/KsJ-db/db Jcl); experiment: Serum insulin after glucose load in type-2 diabetic mice given NAADP (insulin RIA kit); type: in vivo
Procedure: The same test method as described in Example 2 was used, and 50 μl of blood was collected from the tail vein just before glucose load. At 30 minutes (showing the highest blood glucose level after glucose load) and at 120 minutes (showing the lowest blood glucose level after glucose load), the same amount of blood was collected and coagulated, and serum was separated from the blood. The separated serum was measured for insulin concentration using an insulin RIA kit (Linco Research Inc., USA).

pancreatic β-islet cells = experiment: Insulin secretion from isolated mouse pancreatic islets treated with NAADP (radioimmunoassay); type: cell-based, mice
Procedure: The isolation of pancreatic islets from six, 8-week-old ICR mice (Orientbio Inc., Seongnam-si, Korea) weighing 25-30 g was carried out according to the method of Lacy and Kotianovsky (Diabetes, 16, 35-39, 1967) in the following manner. Mice were sacrificed by cervical dislocation, and the peritoneum was incised. Hank's balanced salt solution (HBSS, Gibco, USA) containing 1 mg/mL of collagenase (Sigma, USA) was infused into the bile duct to inflate the pancreas, and then the pancreas was isolated. The isolated pancreas was incubated at 37° C. for 20 minutes, and then homogeneously agitated. The agitated solution was washed with HBSS to remove acinar cells, and then pancreatic islets of a given size were separated from the solution under stereoscopic binocular microscope. […] The concentration of insulin in the supernatant from which the pancreatic β-islet cells have been removed was measured. The measurement of the insulin concentration was carried out by radioimmunoassay using an insulin measurement kit (Diagnostic Products Corp., USA).
Insulin secretion from the mouse pancreatic β-islet cells after treatment by 0 nM and 50 nM at extracellular glucose concentrations maintained at 2.8 mM and 12 mM was measured, and the measurement results are shown in FIG. 1.

[4] = 1 mg/kg/day NAADP by osmotic mini-pump, fasting from 13 hours before testing
[5] = 1 mg/kg/day NAADP by osmotic mini-pump, sera at 0, 30 and 120 min

nicotinic acid adenine dinucleotide phosphate [NAADP]
hematoxylin-eosin staining: capsules covering the pancreatic islets and β-islet cells [1]: clustered together | positive response of pancreatic β-islet cells to anti-insulin antibody ([1]; compared to control group): clearly increased | time at which blood glucose returned to the fasting blood glucose level after glucose load [2, 4]: 120 min | time of blood glucose peak after glucose load [2, 4]: 30 min | blood glucose levels ([2]; 1 mg/kg/day intraperitoneally by osmotic mini-pump, 3 weeks, type-2 diabetic mice, FIG. 2): clear decrease in blood glucose levels; also recorded: clear effect of lowering the blood glucose levels | blood insulin level after the peak, up to 120 minutes after glucose load [3, 5]: maintained at a constant level | time of blood insulin peak after glucose load [3, 5]: 30 min | blood insulin concentration ([3]; 1 mg/kg/day, at 3 weeks (10-week-old), after glucose load, FIG. 3): clear increase in blood insulin concentration | insulin secretion from pancreatic β-islet cells (pancreatic β-islet cells; 50 nM NAADP, glucose 12 mM, 37° C., FIG. 1): great increase in insulin secretion | NAADP concentration essential for stimulating insulin secretion from pancreatic β-islet cells (pancreatic β-islet cells; in the presence of glucose): 5 to 500 nM

Source: patent publication US8133872B2 (Industrial Cooperation Foundation, Chonbuk National …, priority 2008, dated 2012)
